Assay results reported in patent US20070099828A1, “BIOMARKERS FOR THE EFFICACY OF CALCITONIN AND PARATHYROID HORMONE TREATMENT” (priority 2003, published 2007).
“And” between values parts separate entries of the source, which are not always exact repeats. Equal entries are not always repeated.

How the values were obtained:
[1] = cynomolgus monkey, in vivo
Source text: Animals. […] Solvent was used as vehicle for the control group.
The animals used in this analysis were cynomolgus monkeys (Macaca fascicularis), supplied by Centre de Recherches Primatologiques, Port Louis, Mauritius. Two animals were used per group and sex. At the beginning of the treatment period, the animals were at least 24 months old, with a body weight of approximately 3 kg. Animals were kept under standard conditions for animal welfare. Animals were examined daily for mortality, food consumption and clinical observations. Body weight was recorded once per week.

[2] = Blood pressure; format: in vivo, cynomolgus monkeys (Macaca fascicularis); conditions: for Blood Pressure Difference: Week 2 vs Week-1; for Blood Pressure Week-1: before dosing
[3] = Haematology; format: in vivo, cynomolgus monkeys (Macaca fascicularis)
Source text: (§1) Blood sampling. […] Blood samples were taken from a peripheral vein.

[4] = Hormone determinations in serum; format: in vivo, cynomolgus monkeys (Macaca fascicularis); conditions: males
Source text: as §1

[5] = system: liver, kidney, pituitary, muscle, bone, duodenum, spleen and trachea; design: species or system cynomolgus monkeys (Macaca fascicularis); conditions: cynomolgus monkey, in vivo
Procedure: Tissue sampling. Animals were killed by deep anaesthesia induced by intravenous injection of Pentothal®, followed by exsanguinations. All relevant tissues were sampled for histopathology and gene expression profiling. The following tissue samples were processed for analysis: liver, kidney, pituitary, muscle, bone, duodenum, spleen and trachea. Samples for histopathology were fixed in phosphate-buffered 10% formalin. Bone demineralization was performed with 10% formic acid. Tissue samples were embedded in Paraplast® and sectioned at 4 microns, for staining with haematoxylin and eosin. Samples for gene expression profiling were quickly frozen in liquid nitrogen immediately after excision, stored on dry ice and subsequently in a deep-freezer at approximately −80° C. until further use. All selected tissues for gene expression profiling were examined histopathologically.

[6] = Urinary analysis
[7] = urine, females, day −8 (pre-dose)

## CC(C)C[C@H](NC(=O)[C@H](CCCCN)NC(=O)CNC(=O)[C@H](CC(C)C)NC(=O)[C@@H](NC(=O)[C@@H]1CSSC[C@H](N)C(=O)N[C@@H](CO)C(=O)N[C@@H](CC(N)=O)C(=O)N[C@@H](CC(C)C)C(=O)N[C@@H](CO)C(=O)N[C@@H]([C@@H](C)O)C(=O)N1)C(C)C)C(=O)N[C@@H](CO)C(=O)N[C@@H](CCC(N)=O)C(=O)N[C@@H](CCC(=O)O)C(=O)N[C@@H](CC(C)C)C(=O)N[C@@H](Cc1c[nH]cn1)C(=O)N[C@@H](CCCCN)C(=O)N[C@@H](CC(C)C)C(=O)N[C@@H](CCC(N)=O)C(=O)N[C@H](C(=O)N[C@@H](Cc1ccc(O)cc1)C(=O)N1CCC[C@H]1C(=O)N[C@@H](CCCNC(=N)N)C(=O)N[C@H](C(=O)N[C@@H](CC(N)=O)C(=O)N[C@H](C(=O)NCC(=O)N[C@@H](CO)C(=O)NCC(=O)N[C@H](C(=O)N1CCC[C@H]1C(N)=O)[C@@H](C)O)[C@@H](C)O)[C@@H](C)O)[C@@H](C)O [Salmon Calcitonin]
[1]
  Food Consumption Avg., Both animals: 72.9
[2]; Female, first line per animal
  Blood Pressure Week 2: 82 mmHg and 44 mmHg
  Blood Pressure Difference: −16 mmHg and −48 mmHg
  Blood Pressure Week-1: 98 mmHg and 92 mmHg
[2]; Female, second line per animal
  Blood Pressure Week 2: 25 mmHg and 30 mmHg
  Blood Pressure Difference: −25 mmHg and 4 mmHg
  Blood Pressure Week-1: 50 mmHg and 26 mmHg
[2]; Male, first line per animal
  Blood Pressure Week 2: 99 mmHg and 79 mmHg
  Blood Pressure Difference: −36 mmHg and −23 mmHg
  Blood Pressure Week-1: 135 mmHg and 102 mmHg
[2]; Male, second line per animal
  Blood Pressure Week 2: 40 mmHg and 35 mmHg
  Blood Pressure Difference: −21 mmHg
  Blood Pressure Week-1: 61 mmHg and 56 mmHg
[3]; females, d 7
  L: 4.61 G/L and 6.21 G/L
  MCH: 18.6 pg and 19.4 pg
  MCV: 64 fL and 68 fL
  PCV: 0.4 l/l and 0.44 l/l
  PLAT: 594 G/L and 356 G/L
  RBC: 6.2 T/l and 6.6 T/l
  WBC: 9.5 G/l and 17 G/l
  monocyte count: 0.63 G/l and 0.82 G/l
[3]; females, d 13
  B: 0.03 G/L and 0.05 G/L
  L: 5.18 G/L and 6.58 G/L
  MCH: 19.5 pg
  MCV: 64 fL and 65 fL
  PCV: 0.33 l/l and 0.37 l/l
  PLAT: 451 G/L and 229 G/L
  RBC: 5.2 T/l and 5.7 T/l
  WBC: 12 G/l and 13.3 G/l
  monocyte count: 0.69 G/l and 0.39 G/l
[3]; females, d −8 (before dosing)
  B: 0.02 G/L and 0.01 G/L
  E: 0.03 G/L
  L: 3.26 G/L and 4.79 G/L
  MCH: 19.1 pg and 19.8 pg
  MCV: 61 fL and 65 fL
  PCV: 0.4 l/l and 0.45 l/l
  PLAT: 549 G/L and 304 G/L
  RBC: 6.5 T/l and 7 T/l
  WBC: 7 G/l and 8.3 G/l
  monocyte count: 0.25 G/l and 0.3 G/l
[3]; males, d 7
  B: 0.04 G/l
  E: 0.10 G/l and 0.09 G/l
  HB: 11.7 g/dL and 11.5 g/dL
  L: 6.79 G/l and 5.57 G/l
  M: 0.73 G/l and 0.45 G/l
  MCH: 19.9 pg and 19.2 pg
  MCHC: 30.3 g/dL and 31.3 g/dL
  MCV: 66 fL and 62 fL
  PCV: 0.39 l/l and 0.37 l/l
  PLAT: 396 G/l and 330 G/l
  RBC: 5.9 T/l and 6.0 T/l
  WBC: 11.8 G/l and 9.5 G/l
[3]; males, d 13
  B: 0.03 G/l
  HB: 11.2 g/dL and 10.3 g/dL
  L: 5.38 G/l and 4.92 G/l
  M: 0.57 G/l and 0.76 G/l
  MCH: 20.2 pg and 19.2 pg
  MCHC: 29.0 g/dL and 28.7 g/dL
  MCV: 70 fL and 67 fL
  PCV: 0.39 l/l and 0.36 l/l
  PLAT: 302 G/l and 389 G/l
  RBC: 5.6 T/l and 5.4 T/l
  WBC: 8.0 G/l and 8.8 G/l
[3]; males, d −6 (before dosing)
  HB: 12.6 g/dL and 13.6 g/dL
  L: 4.00 G/l and 6.55 G/l
  MCH: 20.2 pg and 19.7 pg
  MCHC: 31.4 g/dL and 32.0 g/dL
  MCV: 64 fL and 62 fL
  PCV: 0.40 l/l and 0.43 l/l
  PLAT: 351 G/l and 247 G/l
  RBC: 6.3 T/l and 6.9 T/l
  WBC: 7.7 G/l and 11.5 G/l
[4]; day 7
  ACTH: 87 pg/mL and 78 pg/mL
  ALDOST: 1058 pg/mL and 987 pg/mL
  C-PEPTI: 1.70 ng/mL and 1.20 ng/mL
  CORTISOL: 979 nmol/L and 1523 nmol/L
  CT: 4.0 pg/mL and 2.5 pg/mL
  GASTRIN: 83 pg/mL and 128 pg/mL
  GLUCAG: 247 pg/mL and 218 pg/mL
  INSULIN: 14.0 mU/l and 10.0 mU/l
  IPH: 75 pg/mL and 62 pg/mL
  S.MED: 268 ng/mL and 307 ng/mL
  T3: 2.35 nmol/L and 1.65 nmol/L
  T4: 64 nmol/L and 79 nmol/L
  VD25-H: 50 nmol/L and 44 nmol/L
[4]; day 13
  ACTH: 87 pg/mL and 73 pg/mL
  ALDOST: 819 pg/mL and 977 pg/mL
  C-PEPTI: 1.80 ng/mL and 2.30 ng/mL
  CORTISOL: 1611 nmol/L and 1709 nmol/L
  G.H.: 16.2 ng/mL and 15.7 ng/mL
  GASTRIN: 88 pg/mL and 136 pg/mL
  GLUCAG: 428 pg/mL and 503 pg/mL
  INSULIN: 17.0 mU/l and 22.0 mU/l
  IPH: 78 pg/mL and 71 pg/mL
  PROLACT: 4.6 ng/mL and 6.6 ng/mL
  S.MED: 332 ng/mL and 384 ng/mL
  T3: 2.51 nmol/L and 1.90 nmol/L
  T4: 47 nmol/L and 65 nmol/L
  VD25-H: 49 nmol/L and 45 nmol/L
[4]; day −6 (pre-dose)
  CORTISOL: 2316 nmol/L and 1578 nmol/L
  CT: 6.7 pg/mL and 5.1 pg/mL
  G.H.: 11.5 ng/mL and 14.6 ng/mL
  GLUCAG: 905 pg/mL and 869 pg/mL
  T3: 1.06 nmol/L and 1.48 nmol/L
  T4: 53 nmol/L and 62 nmol/L
  TESTO: 8.5 nmol/L and 9.5 nmol/L
  VD25-H: 63 nmol/L and 62 nmol/L
[4]; day −6 relative to start of dosing (pre-dose)
  ACTH: 98 pg/mL and 115 pg/mL
[5]
  inflammatory and regenerative changes in the kidneys: slightly higher incidence
[6]; males, day 13
  CREAT (urine): 4620 µmol/L and 4400 µmol/L
  Ca2+ (urine): 18.25 mmol/L and 23.40 mmol/L
  Cl− (urine): 55 mmol/L and 68 mmol/L
  I.PHOS (urine): 2.50 mmol/L and 3.00 mmol/L
  K+ (urine): 78 mmol/L and 76 mmol/L
  Mg2+ (urine): 7.05 mmol/L and 9.80 mmol/L
  Na+ (urine): 14 mmol/L and 15 mmol/L
  VOLUME (urine): 68 mL and 54 mL
[6]; males, day −6 (before dosing)
  I.PHOS (urine): 4.35 mmol/L and 5.33 mmol/L
  LDH (urine): 9.0 IU/L and 13.0 IU/L
  NAG (urine): 2.7 IU/l and 4.2 IU/l
  VOLUME (urine): 62 mL and 37 mL
[6]; urine, females, day 13
  CREAT: 4800 µmol/L and 4200 µmol/L
  Ca2+: 17.55 mmol/L and 12.70 mmol/L
  Cl−: 63 mmol/L and 65 mmol/L
  I.PHOS: 5.1 mmol/L and 5.8 mmol/L
  K+: 53 mmol/L and 57 mmol/L
  Mg2+: 5.40 mmol/L and 4.85 mmol/L
  NAG: 2.8 IU/l and 2.7 IU/l
  Na+: 40 mmol/L and 32 mmol/L
[6]; urine, females, day 13 of dosing
  VOLUME: 67 mL and 49 mL
[6]; urine, females, day −7 (pre-dose)
  CREAT: 6920 µmol/L and 13380 µmol/L
[6]; [7]
  CREAT: 10780 µmol/L and 11260 µmol/L
  Ca2+: 3.00 mmol/L and 3.50 mmol/L
  K+: 104 mmol/L and 172 mmol/L
  Mg2+: 3.35 mmol/L and 3.80 mmol/L
  Na+: 98 mmol/L and 156 mmol/L
